Experimental data taken from paper PMC8949533, “Aurasperone A Inhibits SARS CoV-2 In Vitro: An Integrated In Vitro and In Silico Study” (Marine Drugs, 2022).
Where two headings read alike, the source gives them in different places.

Assays:
Assay type in all cases: cell-based
[1] = system: SARS-CoV-2 virus (hCoV-19/Egypt/NRC-03/2020); experiment: microbe, parasite or virus in culture
MTT cytotoxicity assay = details: African green monkey
Description: (§1) To assess the half maximal cytotoxic concentration (CC50), stock solutions of the test compounds were prepared in 10% DMSO in ddH2O and diluted further to the working solutions with DMEM. The cytotoxic activity of the extracts was tested in Vero E6 cells by using the 3-(4,5-dimethylthiazol-2-yl)-2,5-diphenyltetrazolium bromide (MTT) method with minor modifications. Briefly, the cells were seeded in 96-well plates (100 µL/well at a density of 3 × 10^5 cells/mL) and incubated for 24 h at 37 °C in 5%CO2. After 24 h, cells were treated with various concentrations of the tested compounds in triplicates. 24 h later, the supernatant was discarded, and cell monolayers were washed with sterile 1x phosphate buffer saline (PBS) 3 times and MTT solution (20 µL of 5 mg/mL stock solution) was add to each well and incubated at 37 °C for 4 h followed by medium aspiration. In each well, the formed formazan crystals were dissolved with 200 µL of acidified isopropanol (0.04 M HCl in absolute isopropanol = 0.073 mL HCL in 50 mL isopropanol). Absorbance of formazan solutions was measured at λ max 540 nm with 620 nm as a reference wavelength using a multi-well plate reader. The percentage of cytotoxicity compared to the untreated cells was determined with the following equation.

Vero E6 cells = experiment: MTT cytotoxicity assay; details: Vero E6 cells, MTT, 24 h treatment
Description: as §1

[2] = Severe acute respiratory syndrome coronavirus 2, Vero C1008, 72 h, read-out: IC50 against SARS-CoV-2 (Figure 2)
[3] = Vero E6 cells, MTT, 24 h treatment, read-out: CC50 (Figure 2)
[4] = Severe acute respiratory syndrome coronavirus 2, Vero C1008, 72 h, read-out: IC50 against SARS-CoV-2
[5] = Vero E6 cells, MTT, 24 h treatment, read-out: CC50

SMILES	IC50 [1, 2] [µM]	CC50 at 24 h (MTT cytotoxicity assay; [3]) [µM]	selectivity index (SI = CC50/IC50) [1]	IC50 [1, 4] [µM]	CC50 at 24 h (MTT cytotoxicity assay; [5]) [µM]	further results
COc1cc(OC)c2c(O)c3c(=O)cc(C)oc3c(-c3c(OC)cc(OC)c4c(O)c5c(=O)cc(C)oc5cc34)c2c1 [Rubasperone B (6), rubasperone B]						IC50 ([1]; Severe acute respiratory syndrome coronavirus 2, Vero C1008, Vero E6 cells infected with hCoV-19/Egypt/NRC-03/2020, 72 h, read-out: IC50 against SARS-CoV-2 (Figure 2)): 105 µM; CC50 at 24 h (MTT cytotoxicity assay): 181 µM
COc1cc(OC)c2c(c1)cc(O)c1c(=O)cc(C)oc12 [Flavasperone (1), flavasperone]	204	189				
COc1cc(OC)c2c(O)c3c(=O)cc(C)oc3c(-c3c(OC)cc4cc(O)c5c(=O)cc(C)oc5c4c3OC)c2c1 [Fonsecinone A (4), fonsecinone A]	61.6	288	4.7	61.1		
CCC(CC)COC(=O)[C@H](C)N[P@](=O)(OC[C@H]1O[C@@](C#N)(c2ccc3c(N)ncnn23)[C@H](O)[C@@H]1O)Oc1ccccc1 [remdesivir, reference compound]					415	selectivity index (SI = CC50/IC50) ([1]; CC50 in Vero E6 cells / IC50 against SARS-CoV-2): 41.07; IC50 ([1]; Severe acute respiratory syndrome coronavirus 2, Vero C1008, Vero E6 cells infected with hCoV-19/Egypt/NRC-03/2020, 72 h, CPE reduction by 50%, read-out: IC50 against SARS-CoV-2): 10.1 µM; CC50 (Vero E6 cells): 415 µM
COc1cc(OC)c2c(O)c3c(=O)cc(C)oc3c(-c3c(OC)cc4cc5oc(C)cc(=O)c5c(O)c4c3OC)c2c1 [Aurasperone A (3), aurasperone A]		32400	2641.5	12.2	32400	
